# Results published in patent US10125134B2 (Mirati Therapeutics, Inc., priority 2016, dated 2018).
# Where two headings read alike, the source gives them in different places.
# Experiments:
# [1] = target: KRas G12C (Homo sapiens, UniProt P01116, C118S/C51S/C80L/G12C); assay: KRas G12C Modification Assay (LCMS detection of covalent adduct); format: binding; conditions: normalized percent of control; tested at 5 μM concentration for 3 hours
# In short: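 Covalent modification was read by reverse-phase LC/MS of intact protein after compound exposure, each reaction stopped at its time point with 25 mM acetic acid. Unmodified-protein signal, taken as percent of total, was normalised to untreated protein and reported as POC.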
# [2] = tested on: NCI-H358 cells (express KRas G12C), Phospho-ERK; assay: Cellular inhibition of KRas G12C: Phospho-ERK in NCI-H358 cells; format: cell-based; conditions: Homo sapiens, pERK(Thr202/Tyr204) normalized with GAPDH, NCI-H358 cells, 3 hours, read-out: IC50
# In short: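 IC50 derived by 4-parameter fit of GAPDH-normalized pERK(Thr202/Tyr204) signal, as percent of DMSO control. Signal came from in-cell immunodetection with infrared secondaries after 3 h compound exposure of KRas G12C NCI-H358 cells at 0.5% DMSO.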
SMILES,POC [1],"IC50 ([2]; NCI-H358, 3 h)",IC50 [2]
"C=CC(=O)N1CCN(c2nc(OCC(C)N(C)C)nc3c2CCN(c2cc(O)cc4ccccc24)C3)CC1 (centres unmarked) [Example 73, 1-(4-(2-(2-(dimethylamino)propoxy)-7-(3-hydroxynaphthalen-1-yl)-5,6,7,8-tetrahydropyrido[3,4-d]pyrimidin-4-yl)piperazin-1-yl)prop-2-en-1-one]",C (“C”>50% POC),> 1000 nM,
"C=CC(=O)N1CCN(c2nc(OCCCN3CCOCC3)nc3c2CCN(c2cc(O)cc4ccccc24)C3)CC1 [Example 74, 1-(4-(7-(3-hydroxynaphthalen-1-yl)-2-(3-morpholinopropoxy)-5,6,7,8-tetrahydropyrido[3,4-d]pyrimidin-4-yl)piperazin-1-yl)prop-2-en-1-one]",C (“C”>50% POC),0.1 to 1000 nM,
"C=CC(=O)N1CCN(c2nc(O[C@H](C)CN3CCCCC3)nc3c2CCN(c2cc(O)cc4ccccc24)C3)CC1 [Example 75, (R)-1-(4-(7-(3-hydroxynaphthalen-1-yl)-2-((1-(piperidin-1-yl)propan-2-yl)oxy)-5,6,7,8-tetrahydropyrido[3,4-d]pyrimidin-4-yl)piperazin-1-yl)prop-2-en-1-one]",C (“C”>50% POC),0.1 to 1000 nM,
"C=CC(=O)N1CCN(c2nc(O[C@H](C)CN(C)C)nc3c2CCN(c2cc(O)cc(Cl)c2C(C)C)C3)CC1 [Example 76, (R)-1-(4-(7-(3-chloro-5-hydroxy-2-isopropylphenyl)-2-((1-(dimethylamino)propan-2-yl)oxy)-5,6,7,8-tetrahydropyrido[3,4-d]pyrimidin-4-yl)piperazin-1-yl)prop-2-en-1-one]",C (“C”>50% POC),,> 1000 nM
"C=CC(=O)N1CCN(c2nc(OCCN3C[C@@H]4CC[C@H]3C4)nc3c2CCN(c2cc(O)cc4ccccc24)C3)CC1 [Example 77, 1-(4-(2-(2-((1 S,4R)-2-azabicyclo[2.2.1]heptan-2-yl)ethoxy)-7-(3-hydroxynaphthalen-1-yl)-5,6,7,8-tetrahydropyrido[3,4-d]pyrimidin-4-yl)piperazin-1-yl)prop-2-en-1-one]",C (“C”>50% POC),0.1 to 1000 nM,
"C=CC(=O)N1CCN(c2nc(O[C@H](C)CN(C)C)nc3c2CCN(c2cc(O)ccc2OC(F)(F)F)C3)CC1 [Example 78, (R)-1-(4-(2-((1-(dimethylamino)propan-2-yl)oxy)-7-(5-hydroxy-2-(trifluoromethoxy)phenyl)-5,6,7,8-tetrahydropyrido[3,4-d]pyrimidin-4-yl)piperazin-1-yl)prop-2-en-1-one]",C (“C”>50% POC),,> 1000 nM
"C=CC(=O)N1CCN(c2nc(O[C@H](C)CN(C)C)nc3c2CCN(c2cc(O)ccc2C(F)(F)F)C3)CC1 [Example 79, (R)-1-(4-(2-((1-(dimethylamino)propan-2-yl)oxy)-7-(5-hydroxy-2-(trifluoromethyl)phenyl)-5,6,7,8-tetrahydropyrido[3,4-d]pyrimidin-4-yl)piperazin-1-yl)prop-2-en-1-one]",A (“A”≤25% POC),,> 1000 nM
"C=CC(=O)N1CCN(c2nc(OCC3CN(C)CCN3)nc3c2CCN(c2cc(O)cc4ccccc24)C3)CC1 (centres unmarked) [Example 80, 1-(4-(7-(3-hydroxynaphthalen-1-yl)-2-((4-methylpiperazin-2-yl)methoxy)-5,6,7,8-tetrahydropyrido[3,4-d]pyrimidin-4-yl)piperazin-1-yl)prop-2-en-1-one]",C (“C”>50% POC),> 1000 nM,
"C=CC(=O)N1CCN(c2nc(OCCN3CCC(C#N)CC3)nc3c2CCN(c2cc(O)cc4ccccc24)C3)CC1 [Example 81, 1-(2-((4-(4-acryloylpiperazin-1-yl)-7-(3-hydroxynaphthalen-1-yl)-5,6,7,8-tetrahydropyrido[3,4-d]pyrimidin-2-yl)oxy)ethyl)piperidine-4-carbonitrile]",C (“C”>50% POC),> 1000 nM,
"C=CC(=O)N1CCN(c2nc(OCCCN3CCN(C)CC3)nc3c2CCN(c2cc(O)cc4ccccc24)C3)CC1 [Example 82, 1-(4-(7-(3-hydroxynaphthalen-1-yl)-2-(3-(4-methylpiperazin-1-yl)propoxy)-5,6,7,8-tetrahydropyrido[3,4-d]pyrimidin-4-yl)piperazin-1-yl)prop-2-en-1-one]",C (“C”>50% POC),0.1 to 1000 nM,
"C=CC(=O)N1CCN(c2nc(OCCN(C)CCO)nc3c2CCN(c2cc(O)cc4ccccc24)C3)CC1 [Example 83, 1-(4-(2-(2-((2-hydroxyethyl)(methyl)amino)ethoxy)-7-(3-hydroxynaphthalen-1-yl)-5,6,7,8-tetrahydropyrido[3,4-d]pyrimidin-4-yl)piperazin-1-yl)prop-2-en-1-one]",C (“C”>50% POC),> 1000 nM,
"C=CC(=O)N1CCN(c2nc(O[C@H](C)CN(C)C)nc3c2CCN(c2c(O)ccc(C)c2F)C3)CC1 [Example 84, (R)-1-(4-(2-((1-(dimethylamino)propan-2-yl)oxy)-7-(2-fluoro-6-hydroxy-3-methylphenyl)-5,6,7,8-tetrahydropyrido[3,4-d]pyrimidin-4-yl)piperazin-1-yl)prop-2-en-1-one]",A (“A”≤25% POC),,> 1000 nM
"C=CC(=O)N1CCN(c2nc(OCCN3CCCC3)nc3c2CCN(c2cc(O)cc4ccccc24)C3)CC1 [Example 85, 1-(4-(7-(3-hydroxynaphthalen-1-yl)-2-(2-(pyrrolidin-1-yl)ethoxy)-5,6,7,8-tetrahydropyrido[3,4-d]pyrimidin-4-yl)piperazin-1-yl)prop-2-en-1-one]",C (“C”>50% POC),> 1000 nM,
"C=CC(=O)N1CCN(c2nc(O[C@H](C)CN(C)C)nc3c2CCN(c2cc(OC(F)(F)F)ccc2O)C3)CC1 [Example 86, (R)-1-(4-(2-((1-(dimethylamino)propan-2-yl)oxy)-7-(2-hydroxy-5-(trifluoromethoxy)phenyl)-5,6,7,8-tetrahydropyrido[3,4-d]pyrimidin-4-yl)piperazin-1-yl)prop-2-en-1-one]",A (“A”≤25% POC),,> 1000 nM
"C=CC(=O)N1CCN(c2nc(O[C@H](C)CN(C)C)nc3c2CCN(c2c(C)ccc(F)c2O)C3)CC1 [Example 87, (R)-1-(4-(2-((1-(dimethylamino)propan-2-yl)oxy)-7-(3-fluoro-2-hydroxy-6-methylphenyl)-5,6,7,8-tetrahydropyrido[3,4-d]pyrimidin-4-yl)piperazin-1-yl)prop-2-en-1-one]",A (“A”≤25% POC),,> 1000 nM
"C=CC(=O)N1CCN(c2nc(OCCN3CCCC[C@@H]3C)nc3c2CCN(c2cc(O)cc4ccccc24)C3)CC1 [Example 88, (S)-1-(4-(7-(3-hydroxynaphthalen-1-yl)-2-(2-(2-methylpiperidin-1-yl)ethoxy)-5,6,7,8-tetrahydropyrido[3,4-d]pyrimidin-4-yl)piperazin-1-yl)prop-2-en-1-one]",C (“C”>50% POC),0.1 to 1000 nM,
"C=CC(=O)N1CCN(c2nc(OCC3CCN(C)C3)nc3c2CCN(c2cc(O)cc4ccccc24)C3)CC1 (stereo not drawn) [Example 89, 1-(4-(7-(3-hydroxynaphthalen-1-yl)-2-((l-methylpyrrolidin-3-yl)methoxy)-5,6,7,8-tetrahydropyrido[3,4-d]pyrimidin-4-yl)piperazin-1-yl)prop-2-en-1-one]",C (“C”>50% POC),0.1 to 1000 nM,
"C=CC(=O)N1CCN(c2nc(OCCCN3CCOCC3)nc3c2CCN(c2cc(O)ccc2OC(F)(F)F)C3)CC1 [Example 90, 1-(4-(7-(5-hydroxy-2-(trifluoromethoxy)phenyl)-2-(3-morpholinopropoxy)-5,6,7,8-tetrahydropyrido[3,4-d]pyrimidin-4-yl)piperazin-1-yl)prop-2-en-1-one]",C (“C”>50% POC),,0.1 to 1000 nM
"C=CC(=O)N1CCN(c2nc(O[C@H](C)CN(C)C)nc3c2CCN(c2cc(O)cc(OC(F)(F)F)c2)C3)CC1 [Example 91, (R)-1-(4-(2-((1-(dimethylamino)propan-2-yl)oxy)-7-(3-hydroxy-5-(trifluoromethoxy)phenyl)-5,6,7,8-tetrahydropyrido[3,4-d]pyrimidin-4-yl)piperazin-1-yl)prop-2-en-1-one]",A (“A”≤25% POC),,> 1000 nM
"C=CC(=O)N1CCN(c2nc(OCCN3CCC(C)CC3)nc3c2CCN(c2cc(O)cc4ccccc24)C3)CC1 [Example 92, 1-(4-(7-(3-hydroxynaphthalen-1-yl)-2-(2-(4-methylpiperidin-1-yl)ethoxy)-5,6,7,8-tetrahydropyrido[3,4-d]pyrimidin-4-yl)piperazin-1-yl)prop-2-en-1-one]",C (“C”>50% POC),0.1 to 1000 nM,
"C=CC(=O)N1CCN(c2nc(OC(C)CCN3CCOCC3)nc3c2CCN(c2cc(O)cc4ccccc24)C3)CC1 (centres unmarked) [Example 93, 1-(4-(7-(3-hydroxynaphthalen-1-yl)-2-((4-morpholinobutan-2-yl)oxy)-5,6,7,8-tetrahydropyrido[3,4-d]pyrimidin-4-yl)piperazin-1-yl)prop-2-en-1-one]",C (“C”>50% POC),> 1000 nM,
"C=CC(=O)N1CCN(c2nc(O[C@H](C)CN(C)C)nc3c2CCN(c2cc(O)ccc2OC)C3)CC1 [Example 94, (R)-1-(4-(2-((1-(dimethylamino)propan-2-yl)oxy)-7-(5-hydroxy-2-methoxyphenyl)-5,6,7,8-tetrahydropyrido[3,4-d]pyrimidin-4-yl)piperazin-1-yl)prop-2-en-1-one]",A (“A”≤25% POC),,> 1000 nM
